Laboratory results taken from PMC7230911, “Meroterpenoids from the Brown Alga Cystoseira usneoides as Potential Anti-Inflammatory and Lung Anticancer Agents” (Marine Drugs, 2020).

What was measured:
TNF-α = TNF-α production in LPS-stimulated THP-1 macrophages (ELISA); format: cell-based; conditions: Homo sapiens, 1 h pretreatment, then LPS 1 μg/mL 24 h; for inhibition at 8 µg/mL: 8 μg/mL; for inhibition at 4 µg/mL: 4 μg/mL
Experimental: (§1) To determine the effects of the AMTs 1–8 on the production of TNF-α, IL-6, and IL-1β, THP-1 macrophaghes were pretreated with the compounds and then stimulated with LPS, as the triggering factor to stimulate the cytokines production. The levels of pro-inflammatory cytokines in the cell supernatants were determined using the enzyme-linked immunosorbent (ELISA) kits.
(§2) Figure 2 Meroterpenoids 1–8 inhibit LPS-induced expression of TNF-α, IL-6, and IL-1β in THP-1 macrophages (A, B, and C) respectively. Cells were pretreated for 1 h with the compounds (1, 2, 3, 4, 7, and 8 at 8 μg/mL; 5 and 6 at 4 μg/mL), followed by 24 h treatment with LPS. TNF-α (A), IL-6 (B) and IL-1β (C) contents in the culture medium were determined by ELISA. Dexametasone (DEX) was used as positive control. Data are expressed as means ± SE from three independent experiments. Statistical significance is indicated (+++p < 0.001 and +++< 0.01 vs. Control; respectively * p < 0.05, ** p < 0.01, *** p < 0.001 vs. Control + LPS).
(§3) THP-1 cells were plated at a density of 3 × 10^5 cells/mL in 24-well plates and incubated with PMA (0.2 μM) for 72 h in a humidified atmosphere of 5% CO2 at 37 °C. The macrophages were pre-treated for 1 h with AMTs 1–8 (8 μg/mL for compounds 1, 2, 3, 4, 7, and 8, and 4 μg/mL for 5 and 6) and then stimulated with lipopolysaccharide (LPS, 1 μg/mL) for another 24 h. Dexamethasone (Dex) was used as positive reference compound at 1 μM. The viability of cells was greater than 95% throughout the experiment. The levels of TNF-α, IL-6, and IL-1ß in supernatants were measured with enzyme-linked immune-sorbent assay (ELISA) kits (Diaclone GEN-PROBE, Besançon cedex, France) according to the manufacturer’s protocols. The absorbance was determined at 450 nm using a microplate reader. To calculate the concentration of cytokines, a standard curve was constructed using serial dilutions of cytokine standards provided with the kit.

IL-6 = IL-6 production in LPS-stimulated THP-1 macrophages (ELISA); format: cell-based; conditions: Homo sapiens, 1 h pretreatment, then LPS 1 μg/mL 24 h; for inhibition at 8 µg/mL: 8 μg/mL; for inhibition at 4 µg/mL: 4 μg/mL
Experimental: as §1, §2, §3

IL-1β = IL-1β production in LPS-stimulated THP-1 macrophages (ELISA); format: cell-based; conditions: Homo sapiens, 1 h pretreatment, then LPS 1 μg/mL 24 h; for inhibition at 8 µg/mL: 8 μg/mL; for inhibition at 4 µg/mL: 4 μg/mL
Experimental: as §1, §2, §3

COX-2 = COX-2 protein expression in LPS-stimulated THP-1 macrophages (western blot); format: cell-based, human; conditions: 1 h pretreatment, then LPS 1 μg/mL 24 h
Experimental: COX-2 is the key enzyme regulating the production of prostaglandins, which are the central mediators of inflammation. On the other hand, iNOS enzyme represents an important molecular target closely involved in inflammatory responses. Thus, the effect of the AMTs 1–8 on LPS-induced COX-2 and iNOS protein expression was investigated by western blot analysis.
Figure 3 Effect of meroterpenoids 1–8 on LPS-induced COX-2 and iNOS protein expression in THP-1 macrophages. Cells were pretreated for 1 h with the compounds (1, 2, 3, 4, 7, and 8 at 8 μg/mL; 5 and 6 at 4 μg/mL) and then stimulated with LPS (1 μg/mL). Cytosolic lysates from 24 h-stimulated cells were separated on 10% SDS-PAGE. COX-2, iNOS, and β-actin were detected by western blot analysis. Data are expressed as means ± SE from three independent experiments. Statistical significance is indicated (+++ p < 0.001 and ++ p < 0.01, vs. Control, respectively; * p < 0.05, and ** p < 0.01 vs. Control + LPS).
Western blotting was used to measure the protein levels of COX-2 and iNOS [65]. THP-1 macrophages were plated at a density of 1 × 10^6 cells/mL in six-well plates, treated for 1 h with compounds 1–8 (8 μg/mL for compounds 1, 2, 3, 4, 7, and 8, and 4 μg/mL for compounds 5 and 6), and then stimulated with 1 μg/mL of LPS in medium at 37 °C. After 24 h, the cells were washed with ice-cold PBS, collected, suspended in the lysis buffer (250 mM NaCl, 50 mM Tris (pH 7.5), 0.5 mM EDTA, 5 mM EGTA, 8 mM MgCl2, 1 mM PMSF, 0.01 mg/mL pepstatin A, 0.01 mg/mL leupeptin, 0.01 mg/mL aprotinin, 1% Triton X-100) and centrifuged at 12,000× g at 4 °C for 3 min to yield cell lysates. Proteins concentration in cell lysates was determined by Bio-Rad Protein Assay, based on the method of Bradford (BioRad, Richmond CA, USA). Cytosolic proteins (50 μg) were separated with 10% SDS-polyacrylamide gel electrophoresis and transferred on PVDF membranes. The membranes were then blocked with 5% (w/v) non-fat dry milk in Tris-buffered saline containing 0.1% Tween-20 (pH 7.4) (TBST) buffer at room temperature for 1 h. The membranes were washed three times (10 min) in TBST buffer and incubated with specific primary antibodies anti-COX-2 (1:3000) or anti-iNOS (1:1000) diluted in 5% (w/v) non-fat dry milk in TBST buffer, at 4 °C overnight. Then, the membranes were incubated with peroxidase-conjugated […] goat anti-rabbit IgG (1: 1000) for 1 h at room temperature. To ascertain that blots were loaded with equal amounts of protein lysates, they were also incubated in the presence of the antibody against β-actin protein (1:10,000). After washing the membrane again with TBST buffer (10 min) three times, the antibody was visualized using an enhanced chemiluminescence light-detecting kit (Super-Signal West Pico Chemiluminescent Substrate, Pierce, IL, USA), according to the manufacturer’s instructions and exposed to an X-ray film (GE Healthcare Ltd., Amersham, UK). The protein band densities were quantified using a Scientific Imaging Systems (Biophotonics ImageJ Analysis Software, National Institute of Mental Health, Bethesda, MD, USA).

Row | SMILES | inhibition at 8 µg/mL (TNF-α) [%] | inhibition at 8 µg/mL (IL-6) [%] | inhibition at 8 µg/mL (IL-1β) [%] | effect on expression of COX-2 (in words) (COX-2; 8 μg/mL) | decrease of COX-2 levels (COX-2; 8 μg/mL) [%] | inhibition at 4 µg/mL (TNF-α) [%] | inhibition at 4 µg/mL (IL-6) [%] | inhibition at 4 µg/mL (IL-1β) [%] | decrease of COX-2 levels (COX-2; 4 μg/mL) [%]
1 | COc1c(C)cc(O)cc1C/C=C(\C)CC(=O)/C=C(/C)CCCC(C)(O)C(=O)/C=C/C(C)(C)O (stereo not shown) [Compound 1, usneoidone Z] | 73.1 | 71.2 | 74.6 | no significant effect |  |  |  |  | 
2 | COc1c(C)cc(O)cc1C/C=C(\C)CC(=O)/C=C(\C)CCCC(C)(O)C(=O)/C=C/C(C)(C)O (stereo not shown) [Compound 2, 11-hydroxy-1’-O-methylamentadione] | 64.1 | 80.8 | 84.4 | significantly down-regulated |  |  |  |  | 
3 | COc1c(C)cc(O)cc1C/C=C(\C)CC(=O)/C=C(\C)CCCC(C)=O [Compound 3, cystomexicone B] | 57.1 | 69.2 | 35.3 |  | 53.35 |  |  |  | 
4 | COc1c(C)cc(O)cc1C/C=C(\C)CC(=O)/C=C(/C)CCCC(C)=O [Compound 4, cystomexicone A] | 42.2 to 43.3 | 43 |  | significantly down-regulated |  |  |  |  | 
5 | COc1c(C)cc(O)cc1C/C=C(\C)CC(=O)/C=C(/C)CCCC(C)C(=O)/C=C/C(C)(C)O (stereo not drawn) [Compound 5, 6-cis-amentadione-1′-methyl ether] |  |  |  |  |  | 55.3 | 67.8 | 86 | 53.52
6 | COc1c(C)cc(O)cc1C/C=C(\C)CC(=O)/C=C(\C)CCCC(C)C(=O)/C=C/C(C)(C)O (stereo not shown) [Compound 6, amentadione-1′-methyl ether] |  |  |  |  |  | 42.2 to 43.3 | 50.9 | 61.1 | 64.23
7 | COc1c(C)cc(O)cc1/C=C/C(C)(O)CC(=O)/C=C(/C)CCCC(C)C(=O)/C=C/C(C)(C)O (stereo not shown) [Compound 7, cystodione A] | 42.2 to 43.3 | 49.6 | 44.9 |  | 58.05 |  |  |  | 
8 | COc1c(C)cc(O)cc1/C=C/C(C)(O)CC(=O)/C=C(\C)CCCC(C)C(=O)/C=C/C(C)(C)O (stereo not shown) [Compound 8, cystodione B] | 52.6 | 58.9 | 44.6 | no significant effect |  |  |  |  | 
